# Data as given in patent US6379083B1, “Method for the remediation of soil contaminated with organic halide compounds” (Hazama Corporation, priority 1998, dated 2002).
# Like-named read-outs stand apart in the source and are kept apart here.
# Test: Solubility of volatile organic halide in carbonic acid aqueous solution (Example 3)
# Assay type: physicochemical
# Details: for solubility at 24 h: 20.7 °C, thermodynamic from solid, read-out: Detected amount of trichloroethylene (saturated solubility)
# Protocol: Using a carbonic acid aqueous solution having carbonated ion-concentration of 7,700 mg/L (i.e., 7,700 ppm) and natural water (trade name: Eapin; carbonated ion-concentration of 0 mg/L), four kinds of carbonic acid aqueous solutions (i.e., carbonated ion-concentration: 340 mg/L, 920 mg/L, 1700 mg/L and 7,700 mg/L) were prepared.
# Using a syringe, 0.14 g of excess trichloroethylene was added to the water or solution, and each linked part in the Glass-Vials was sealed by the use of Teflon tape. The mixture was stirred for 30 minutes using a magnetic stirrer, and allowed to stand for 24 hours. Thereafter, a supernatant fraction was quickly collected and extracted to give trichloroethylene. These procedures were performed at temperature of 20.7° C.
# As for the above natural water and carbonic acid aqueous solutions before the injection into the glass-bialbin, their carbonated ion-concentrations were measured by means of neutralization titration. The titration was conducted according to strontium chloride/monobasic acid-base titration described in JIS K 0101 25.
# To the supernatant fraction obtained above, n-hexane for test of remaining agriculture chemical was added in the same amount as the fraction, and vigorously stirred to give an n-hexane layer. The layer was analyzed by a gas chromatography in the following conditions:
# Analyzer: GC-17A type available from Shimadzu Corp.
# Column: AQUATAC 75 m×0.53 mmφ
# Column Temperature: 210° C.
structure (smiles),measurement,setting,value
ClC=C(Cl)Cl [trichloroethylene],solubility at 24 h,"aqueous buffer, Carbonated ion concentration 340 mg/L",780 µg/mL
same,solubility at 24 h,"aqueous buffer, Carbonated ion concentration 920 mg/L",1000 µg/mL
same,solubility at 24 h,"aqueous buffer, Carbonated ion concentration 7700 mg/L",1300 µg/mL
same,Detected amount of trichloroethylene (saturated solubility),"Carbonated ion concentration 1700 mg/L, 20.7° C.",1100 µg/mL
same,solubility at 24 h,"natural water (Eapin; carbonated ion concentration 0 mg/L), water, Carbonated ion concentration 0 mg/L (natural water)",750 µg/mL
